Reference: patent EP0503411A1, “Substituted N-phenylpiperidines and medicaments thereof” (BASF Aktiengesellschaft, priority 1991, dated 1992)

Key:
Sigma-Rezeptor = test: Sigma receptor binding test ([³H]-Ditolylguanidin binding, rat cerebrum membranes); design: species or system Ratte; settings: [³H]-Ditolylguanidin-Bindungsstelle, 37°C
Description: Der verwendete Bindungsassay (Bindung von [³H]-Ditolylguanidin) erfaßt sogenannte "Haloperidolsensitive-Sigma-Rezeptoren", die eine hohe Affinität zum Haloperidol, aber nur geringe Affinität zum Phencyclidin und zu Opoiden aufweisen.
Life Sciences 47, 1073 (1990)], eingesetzt.
Rattengroßhirne wurden in dem 10fachen Volumen Homogenisierungspuffer (50 mmol Tris(hydroxymethyl)-amino-methan, 0,1 mmol Ethylendiamintetraacetat, pH=7,7) mit einem Polytron-Homogenisiator homogenisiert (20 sec.). Nach 15 Minuten Zentrifugation bei 40000 Umdrehungen/min wurde das erhaltene Pellet resuspendiert und die Suspension erneut 15 Minuten lang mit 40000 Umdrehungen/min zentrifugiert. Das hierbei erhaltene Pellet wurde im 5fachen Volumen Homogenisierungspuffer resuspendiert und bis zur weiteren Verwendung in flüssigem Stickstoff eingefroren.
Testsubstanz und Membranen (0,3 mg Protein) wurden in 0,3 ml Inkubationspuffer (5 mmol Tris(hydroxymethyl)-amino-methan, 0,1 mmol Ethylendiamintetraacetat, pH=7,7) 45 Minuten bei 37°C inkubiert. Nach Zugabe von 100 000 dpm [³H]-Ditolylguanidin (54,5 Ci/mmol) wurde noch 1 Stunde inkubiert. Die Membranen wurden über GF/B-Filter (dunn-Labortechnik, Asbach) filtriert und mit einem 37°C warmen Waschpuffer (5 mmol Tris(hydroxymethyl)-amino-methan, 0,1 mmol Ethylendiamintetraacetat, pH=7,4) gewaschen. Die verbleibende Radioaktivität auf den Filtern wurde durch Flüssig-Scintillationszählung gemessen. Die Bindungsdaten wurden durch iterative Anpassungsprogramme analysiert.

Meerschweinchenherzen = test: QT-prolonging effect, ECG measurement on isolated Langendorff-perfused guinea pig heart; design: species or system Duncin-Hartley-Meerschweinchen; settings: concentration in perfusate giving 20 % increase of initial QT duration, cumulative addition every 15 min, from linear regression
Description: Die Wirkung der Phenylpiperidine I als Repolarisationshemmstoffe kann man durch EKG-Messungen belegen. Dabei unterteilt man die Herzperiode zeitlich in Systole (Zusammenziehen des Herzens), auch QT-Dauer genannt, und Diastole (Erschlaffung des Herzens mit Blutfüllung der Herzkammern). Repolarisationshemmstoffe bewirken nun eine Verlängerung der QT-Dauer ohne die Vorhofkammer-überleitungszeit (PQ-Dauer) und die Anspannungszeit (QRS-Dauer, Beginn der Systole bis zum öffnen der Semilunarklappen) wesentlich zu verändern (s. Pschyrembel, 254. Auflage, 1982).
Die Wirksamkeit der erfindungsgemäßen Verbindungen als Repolarisationshemmstoffe läßt sich im Tierversuch durch EKG-Messungen beispielsweise am Meerschweinchenherzen untersuchen (s. Basic Res. Cardiol. 82 (1987) 437; J. Pharmacol. Methods 21 (1989) 195). Zum Vergleich der Wirksamkeit mehrerer Substanzen dient dabei zum Beispiel die Dosis eines Wirkstoffes, bei der eine 20 %ige Zunahme des QT-Ausgangswertes eintritt (ED₂₀ %). Hierzu trägt man die logarithmierten Dosiswerte der jeweiligen Substanzen gegen die experimentell gefundenen relativen Änderungen der QT-Dauer auf, und ermittelt mittels linearer Regression die Funktionsgleichung einer Geraden, aus der man dann den ED20 %-Wert berechnen kann.
Mit dieser Methode wurden die ED20 %-Werte erfindungsgemäßer Verbindungen bestimmt (s. Tabelle 1). Als Vergleichssubstanz diente D-Sotalol [4'-(1-Hydroxy-2-(isopropylamino)-ethyl)methansulfonanilid].
Als Versuchstiere dienten männliche Duncin-Hartley-Meerschweinchen mit einem Körpergewicht von 300 bis 350 g. 30 min nach Applikation von 1250 I.E. Heparin/kg Körpergewicht in den Bauchraum wurden die Tiere durch Genickschlag getötet. Nach dem Durchtrennen der Kopfschlagadern zum Entbluten, wurde der Bruststamm geöffnet, das Herz herausgetrennt und an eine Perfusionsapparatur angeschlossen. Die Perfusion erfolgte nach Langendorff mit Sauerstoff angereicherter auf 37°C erwärmter Krebs-Henseleit-Lösung (NaCl 6896 mg/l; KCl 350 mg/l; MgSO₄ 285 mg/l; CaCl₂ 370 mg/l; KH₂PO₄ 161 mg/l; NaHCO₃ 2090 mg/l; Glukose 2000 mg/l). Dabei wurde das Perfusionsvolumen pro Zeiteinheit bei einem Gesamtvolumen von 100 ml auf 4 bis 6 ml/min und der Perfusionsdruck auf 60 bis 70 mm Hg eingestellt. Nach einer Äquilibrierzeit von 30 min wurde zirkulierend perfundiert.
Die EKG-Messungen wurden über zwei Silberelektroden, die auf der Herzoberfläche im oberen Bereich der linken Koronararterie und auf der Rückseite des Herzens auf Höhe der Ventilebene angebracht waren, aufgenommen. Gemessen wurden die PQ-, QT- und QRS-Zeiten sowie die Herzfrequenz.
Die Substanzgabe erfolgte kumulativ im Abstand von 15 min ins Perfusat.

Compound	Ki (Sigma-Rezeptor)	ED20 % (Meerschweinchenherzen)
1-(4-Nitrophenyl)-4-(4-phenyl-1-piperidinoyl)-piperidin [Beispiel 8]	2.8 nM	
CN(Cc1ccccc1)CC1CCN(c2ccc([N+](=O)[O-])cc2)CC1 [Beispiel 2, 4-(N-Benzyl-N-methylaminomethyl)-1-(4-nitrophenyl)-piperidin]	11 nM	0,42 µmol/l
N#Cc1ccc(N2CCC(N3CCN(c4ccc([N+](=O)[O-])cc4)CC3)CC2)cc1 [Beispiel 3, N-[4-N(4-Cyanophenyl)piperidinoyl]-N'³(4-nitrophenyl)-piperazin]		0,031 µmol/l
CN(Cc1ccc(NS(C)(=O)=O)cc1)CC1CCN(c2ccc(NS(C)(=O)=O)cc2)CC1 [Beispiel 10, 1-(4-Methansulfonamidophenyl)-4-(N-(4-methansulfonamidobenzyl)-N-methylaminomethyl)-piperidin]		0,96 µmol/l
CN(Cc1ccccc1)C1CCCN(c2ccc([N+](=O)[O-])cc2)C1 (stereo not shown) [Beispiel 11, 3-(N-Benzyl-N-methylamino)-1-(4-nitrophenyl)-piperidin]	2 nM	1,1 µmol/l
CN(CC(O)c1ccc(F)cc1)C1CCN(c2ccc([N+](=O)[O-])cc2)CC1 (stereo not shown) [Beispiel 12, 4-[N,N-[2-(4-Fluorphenyl)-2-hydroxyethyl]methylamino]-1-(4-nitrophenyl)-piperidin]		0,21 µmol/l
CC(C)NCC(O)c1ccc(NS(C)(=O)=O)cc1 [D-Sotalol, 4'-(1-Hydroxy-2-(isopropylamino)-ethyl)methansulfonanilid, reference compound]		16,0 µmol/l
Cc1ccccc1NC(=N)Nc1ccccc1C [DTG, 1,3-Di-o-tolyl-guanidin, reference compound]	29.1 nM	
